Measurements from patent US9000037B2, “Precursors of glutamate derivatives” (Piramal Imaging SA, priority 2011, dated 2015).

Key:
[1] = 19F-fluorination of precursors, reaction rates; format: physicochemical; details: for krel (relative reaction rate): 19F-fluorination, slowest reaction (If) defined as 1; for reaction rate of 19F-fluorination, in words: comparison among precursors
Procedure: Precursor (0.01 mmol) was dissolved in acetonitrile (0.5 mL), and 1.0 M TBAF/acetonitrile solution (20 μL, 0.02 mmol) was added. The reaction mixture was stirred at 80° C. for 2 h. 40 μL of solution was taken at 5, 10, 20, 40, 60, 90, and 120 min for HPLC analysis (method A4).
^19F-Fluorination was performed as described in “General procedures”. The progress of the reaction was examined after 5, 10, 20, 40, 60, 90, and 120 min. Plotting the percentage of the conversation versus the time, the reaction rates were calculated.

[2] = Stability of example compounds in solid form (HPLC); format: physicochemical; details: for Solid (%) Start: purity by HPLC before the study; for Solid (%) 1 week 0° C. / Solid (%) 1 week −20° C. / Solid (%) 2 week 0° C. / Solid (%) 2 week −20° C. / Solid (%) 3 week 0° C. / Solid (%) 3 week −20° C. / Solid (%) 4 week 0° C. / Solid (%) 4 week −20° C.: amber vial under Ar; for Solid (%) 2 week 0° C. / Solid (%) 2 week −20° C.: 2 weeks; for Solid (%) 3 week 0° C. / Solid (%) 3 week −20° C.: 3 weeks; for Solid (%) 4 week 0° C. / Solid (%) 4 week −20° C.: 4 weeks
Procedure: Method A1 (analytics of di-tert-butyl (4S)-4-(3-hydroxypropyl)-N-trityl-L-glutamate • Column: ChiralPak IA, 4.6×250 mm • Mobile phase: 5% IPA/n-heptane • Flow rate: 1 mL/min • Wavelength: 214/254 nm Method A2 (for Id) • Column: X-Bridge • Mobile phase: Acetonitrile/water 20:80 to 100% water • Flow rate: 1 mL/min • Wavelength: 214 nm Method A3 (for Ia to Ic and Ie to II) • Column: X-Bridge • Mobile phase: Acetonitrile/water […] to 100% water • Flow rate: 1 mL/min • Wavelength: 214 nm Method A4 (^19F-fluorination) • Column: Phenomenex Lux 5U Amylose-2 • Mobile phase: 10% IPA/Hex • Flow rate: 1 mL/min • Wavelength: 214 nm Method A5 (^18F-radiolabeling) • Column: Phenomenex Luna 5μ C18(2); 250*4.6 mm • Mobile phase: A: Na2HPO4 10 mM pH 7.4, B: acetonitrile • Gradient: 0 min 12% B, 15 min 12% B, 16 min 100% B, 18 min 100% B, 20 min 12% B, 23 min 12% B • Flow rate: 1.2 mL/min • Wavelength: 340 nm • Derivatization: […] of the product solution are mixed with […] OPA reagent (Thermo Scientific, No.:26015). After 1 min reaction at room temperature the solution is applied to the HPLC
The stability of the compounds of formula I were examined in solid form at two different temperatures: 0° C., and −20° C. The precursors were tested weekly for 4 weeks. Before the study, purities of the precursors were determined individually by HPLC analysis.
1. Solid state: 3-5 mg of the respective precursor Ia to Ij were put into 8 amber vials, which were flushed with Ar gas and capped. Each four vials containing precursor were stored at 0° C., and −20° C. Every week for 4 weeks, 1 mg of precursor was dissolved in acetonitrile (1.0 mL). 10 μL of solution was injected into HPLC (method A2 or A3, respectively).

[3] = tested on: tumor; details: cited from earlier work

Solid (%) Start [2] | Solid (%) 1 week 0° C. [2] | Solid (%) 1 week −20° C. [2] | Solid (%) 2 week 0° C. [2] | Solid (%) 2 week −20° C. [2] | Solid (%) 3 week 0° C. [2] | Solid (%) 3 week −20° C. [2] | Solid (%) 4 week 0° C. [2] | Solid (%) 4 week −20° C. [2] | Compound | krel (relative reaction rate) [1] | reaction rate of 19F-fluorination, in words [1] | results in first clinical studies ([3]; compared with [18F]-4-fluoro-glutamic acid) | detection of lung cancer ([3]; first clinical studies) | tumor uptake ([3]; first clinical studies) | defluorination ([3]; in vivo)
97.6% | 94.4% | 94.6% | 95.0% | 94.8% | 93.1% | 93.1% | 93.4% | 92.8% | CC(C)(C)OC(=O)[C@@H](CCCOS(=O)(=O)c1ccc([N+](=O)[O-])c(C(F)(F)F)c1)C[C@H](NC(c1ccccc1)(c1ccccc1)c1ccccc1)C(=O)OC(C)(C)C [Ih, Di-tert-butyl (4S)-4-[3-({[4-nitro-3-(trifluoromethyl)phenyl]sulfonyl}oxy)propyl]-N-trityl-L-glutamate] | – | – | – | – | – | –
99.4% | 99.5% | 99.4% | 99.3% | 99.2% | 99.1% | 99.0% | 98.7% | 98.4% | CC(C)(C)OC(=O)[C@@H](CCCOS(=O)(=O)c1ccc([N+](=O)[O-])cc1)C[C@H](NC(c1ccccc1)(c1ccccc1)c1ccccc1)C(=O)OC(C)(C)C [Ia, Di-tert-butyl (4S)-4-(3-{[(4-nitrophenyl)sulfonyl]oxy}propyl)-N-trityl-L-glutamate] | 6.93 | Fastest conversion | – | – | – | –
98.8% | 98.6% | 98.6% | 98.6% | 98.7% | 98.6% | 96.9% | 98.4% | 98.0% | CC(C)(C)OC(=O)[C@@H](CCCOS(=O)(=O)c1ccc(-c2ccccc2)cc1)C[C@H](NC(c1ccccc1)(c1ccccc1)c1ccccc1)C(=O)OC(C)(C)C [Ic, Di-tert-butyl (4S)-4-{3-[(biphenyl-4-ylsulfonyl)oxy]propyl}-N-trityl-L-glutamate] | 2.93 | – | – | – | – | –
99.8% | 99.8% | 99.8% | – | – | 99.8% | 99.8% | 99.8% | 99.8% | CC(C)(C)OC(=O)[C@@H](CCCOS(=O)(=O)c1ccc2ccccc2c1)C[C@H](NC(c1ccccc1)(c1ccccc1)c1ccccc1)C(=O)OC(C)(C)C [Id, Di-tert-butyl (4S)-4-{3-[(2-naphthylsulfonyl)oxy]propyl}-N-trityl-L-glutamate] | 2.38 | – | – | – | – | –
96.7% | 96.5% | 96.6% | 94.6% | 94.8% | 95.0% | 93.7% | 91.3% | 94.3% | CC(C)(C)OC(=O)[C@@H](CCCOS(=O)(=O)c1cccc([N+](=O)[O-])c1)C[C@H](NC(c1ccccc1)(c1ccccc1)c1ccccc1)C(=O)OC(C)(C)C [Ib, Di-tert-butyl (4S)-4-(3-{[(3-nitrophenyl)sulfonyl]oxy}propyl)-N-trityl-L-glutamate] | 9.86 | Fastest conversion | – | – | – | –

Continued, compound first:

Compound | Solid (%) Start [2] | Solid (%) 1 week 0° C. [2] | Solid (%) 1 week −20° C. [2] | Solid (%) 2 week 0° C. [2] | Solid (%) 2 week −20° C. [2] | Solid (%) 3 week 0° C. [2] | Solid (%) 3 week −20° C. [2] | Solid (%) 4 week 0° C. [2] | Solid (%) 4 week −20° C. [2] | krel (relative reaction rate) [1] | reaction rate of 19F-fluorination, in words [1] | results in first clinical studies ([3]; compared with [18F]-4-fluoro-glutamic acid) | detection of lung cancer ([3]; first clinical studies) | tumor uptake ([3]; first clinical studies) | defluorination ([3]; in vivo)
CC(C)(C)OC(=O)[C@@H](CCCOS(=O)(=O)c1ccc(-c2ccc(S(=O)(=O)OCCC[C@@H](C[C@H](NC(c3ccccc3)(c3ccccc3)c3ccccc3)C(=O)OC(C)(C)C)C(=O)OC(C)(C)C)cc2)cc1)C[C@H](NC(c1ccccc1)(c1ccccc1)c1ccccc1)C(=O)OC(C)(C)C [Ig, Tetra-tert-butyl (2S,4S,2′S,4′S)-2,2′-[biphenyl-4,4′-diylbis(sulfonyloxypropane-3,1-diyl)]bis[4-(tritylamino)pentanedioate]] | 97.9% | 97.9% | 98.0% | 98.0% | 98.1% | 97.9% | 97.9% | 97.8% | 97.5% | 11.8 | Fastest conversion | – | – | – | –
CC(C)(C)OC(=O)[C@@H](CCCOS(=O)(=O)c1cccc2ccccc12)C[C@H](NC(c1ccccc1)(c1ccccc1)c1ccccc1)C(=O)OC(C)(C)C [Ie, Di-tert-butyl (4S)-4-{3-[(1-naphthylsulfonyl)oxy]propyl}-N-trityl-L-glutamate] | 99.1% | 99.0% | 98.9% | 99.0% | 99.0% | 99.0% | 98.6% | 98.6% | 97.9% | 2.45 | – | – | – | – | –
CC(C)(C)OC(=O)[C@@H](CCCOS(=O)(=O)c1c(Cl)cc(Cl)cc1Cl)C[C@H](NC(c1ccccc1)(c1ccccc1)c1ccccc1)C(=O)OC(C)(C)C [Ii, Di-tert-butyl (4S)-4-(3-{[(2,4,6-trichlorophenyl)sulfonyl]oxy}propyl)-N-trityl-L-glutamate] | 97.2% | 89.5% | 89.6% | 97.0% | 97.0% | 96.7% | 95.6% | 95.9% | 93.2% | 1.88 | – | – | – | – | –
N[C@@H](C[C@H](CCC[18F])C(=O)O)C(=O)O [(S)-4-(3-[^18F]Fluoropropyl)-L-glutamic acid] | – | – | – | – | – | – | – | – | – | – | – | Superior results | Very good results | – | –
N[C@@H](CC([18F])C(=O)O)C(=O)O (some centres unmarked) [[^18F]-4-fluoro-glutamic acid] | – | – | – | – | – | – | – | – | – | – | – | – | – | good tumor uptake | some defluorination was detected
CC(C)(C)OC(=O)[C@@H](CCCOS(=O)(=O)c1cccc2cccnc12)C[C@H](NC(c1ccccc1)(c1ccccc1)c1ccccc1)C(=O)OC(C)(C)C [If, Di-tert-butyl (4S)-4-{3-[(quinolin-8-ylsulfonyl)oxy]propyl}-N-trityl-L-glutamate] | 90.5% | 89.5% | 89.6% | 89.0% | 88.5% | 89.0% | 88.3% | 89.0% | 87.0% | 1.0 | slowest reaction | – | – | – | –
